Reference: the supplement of paper PMC10307832

Tests used:
Experiment in all cases: relative viability (nuclei count vs DMSO), 5 days (fraction); higher = more cells survive
IDH-C35 + Pemetrexed = compound: Cc1ccccc1C(C(=O)NC1CCCCC1)N(C(=O)Cn1ccnc1C)c1cccc(F)c1 [IDH-C35] + Nc1nc2[nH]cc(CCc3ccc(C(=O)N[C@@H](CCC(=O)O)C(=O)O)cc3)c2c(=O)[nH]1 [Pemetrexed] (partner 0.2 µM)
Procedure, shortened: (§1)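 Nuclei were stained with Hoechst during a one-step fixation (final 0.05% Triton X-100, 1% formaldehyde, 1 ug/ml Hoechst) carried out 5 days after dosing, then counted on 4× images. The cells, lung cancer lines in 1536-well plates, had been dosed by pin tool the day after seeding with one drug alone or a fixed anchor-drug dose plus five library-drug doses (not always all listed) in √10 steps. Relative viability is the nuclei count in treated wells divided by that in vehicle wells, and each value is the median of duplicate plates.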

[1] = compound: CC1=C(C(=NN1)C)CC2=C(C3=C(S2)N(C(=O)N(C3=O)C)CC(C)C)C(=O)N4C[C@@H](CO4)O + C[C@]1(O)C[C@@H](c2nc(-c3ccc4ccc(-c5ccccc5)nc4c3)c3c(N)nccn32)C1 [Linsitinib] (partner 1 µM)
Procedure, shortened: as §1

IDH-C35 + Crizotinib = compound: Cc1ccccc1C(C(=O)NC1CCCCC1)N(C(=O)Cn1ccnc1C)c1cccc(F)c1 [IDH-C35] + C[C@@H](Oc1cc(-c2cnn(C3CCNCC3)c2)cnc1N)c1c(Cl)ccc(F)c1Cl [Crizotinib] (partner 1 µM)
Procedure, shortened: as §1

IDH-C35 + Olaparib = compound: Cc1ccccc1C(C(=O)NC1CCCCC1)N(C(=O)Cn1ccnc1C)c1cccc(F)c1 [IDH-C35] + O=C(c1cc(Cc2n[nH]c(=O)c3ccccc23)ccc1F)N1CCN(C(=O)C2CC2)CC1 [Olaparib] (partner 8 µM)
Procedure, shortened: as §1

Row | Cell Line | relative viability (IDH-C35 + Pemetrexed; first compound 0.08 µM) | relative viability (IDH-C35 + Pemetrexed; first compound 0.253 µM) | relative viability (IDH-C35 + Pemetrexed; first compound 0.8 µM) | relative viability (IDH-C35 + Pemetrexed; first compound 2.53 µM) | relative viability (IDH-C35 + Pemetrexed; first compound 8 µM) | relative viability ([1]; first compound 0.0025 µM) | relative viability ([1]; first compound 0.007906 µM) | relative viability ([1]; first compound 0.025 µM) | relative viability ([1]; first compound 0.07906 µM) | relative viability ([1]; first compound 0.25 µM) | relative viability (IDH-C35 + Crizotinib; first compound 0.08 µM) | relative viability (IDH-C35 + Crizotinib; first compound 0.253 µM) | relative viability (IDH-C35 + Crizotinib; first compound 0.8 µM) | relative viability (IDH-C35 + Crizotinib; first compound 2.53 µM) | relative viability (IDH-C35 + Crizotinib; first compound 8 µM) | relative viability (IDH-C35 + Olaparib; first compound 0.08 µM) | relative viability (IDH-C35 + Olaparib; first compound 0.253 µM) | relative viability (IDH-C35 + Olaparib; first compound 0.8 µM) | relative viability (IDH-C35 + Olaparib; first compound 2.53 µM) | relative viability (IDH-C35 + Olaparib; first compound 8 µM)
1 | HCC-366 | 0.143 | 0.156 | 0.171 | 0.188 | 0.176 | 0.593 | 0.771 | 0.59 | 0.62 | 0.712 | 0.546 | 0.51 | 0.564 | 0.546 | 0.42 | 0.353 | 0.361 | 0.345 | 0.36 | 0.326
2 | BEN | 0.633 | 0.929 | 0.73 | 0.762 | 0.857 | 0.932 | 0.79 | 0.762 | 0.663 | 0.862 | 0.932 | 0.738 | 0.803 | 0.942 | 0.861 | 1.06 | 1.11 | 1.03 | 0.952 | 0.995
3 | NCI-H23 | 0.642 | 0.848 | 0.625 | 0.773 | 0.652 | 0.521 | 0.548 | 0.516 | 0.565 | 0.777 | 0.488 | 0.654 | 0.488 | 0.507 | 0.432 | 0.306 | 0.329 | 0.33 | 0.321 | 0.381
4 | 201T | 0.329 | 0.351 | 0.367 | 0.343 | 0.321 | 1.06 | 0.988 | 1.03 | 1.1 | 1.06 | 1.03 | 1.02 | 0.982 | 0.999 | 0.997 | 0.762 | 0.824 | 0.799 | 0.81 | 0.841
5 | NCI-H460 | 0.0621 | 0.0643 | 0.0648 | 0.0655 | 0.0759 | 0.736 | 0.577 | 0.789 | 1.09 | 1.19 | 1 | 0.989 | 0.782 | 0.814 | 0.955 | 0.416 | 0.419 | 0.439 | 0.387 | 0.367
6 | NCI-H661 | 0.95 | 0.948 | 0.893 | 0.901 | 0.879 | 0.593 | 0.636 | 0.603 | 0.762 | 0.463 | 0.969 | 0.973 | – | 0.975 | 0.971 | 0.758 | 0.743 | 0.738 | 0.71 | 0.688
7 | HCC-15 | 0.206 | 0.235 | 0.223 | 0.226 | 0.227 | 0.932 | 0.937 | 0.871 | 0.942 | 0.855 | 0.854 | 0.804 | 0.802 | 0.814 | 0.731 | 0.712 | 0.733 | 0.724 | – | 0.667
8 | LCLC-103H | 0.452 | 0.49 | 0.467 | 0.48 | 0.428 | 1.07 | 1.15 | 1.18 | 0.835 | 1.12 | 1.01 | 1.07 | 1 | 1.07 | 0.987 | 0.788 | 0.71 | 0.807 | 0.777 | 0.711
9 | NCI-H441 | 0.256 | 0.272 | 0.269 | 0.292 | 0.244 | 0.59 | 0.491 | 0.493 | 0.53 | 0.615 | 0.964 | 0.673 | 0.649 | 0.703 | 0.749 | 0.627 | 0.638 | 0.595 | 0.468 | 0.557
10 | EPLC-272H | 0.276 | 0.388 | 0.397 | 0.34 | 0.394 | 1.24 | 1.13 | 1.32 | 0.986 | 1.27 | 1.09 | 0.805 | 0.855 | – | 1.03 | 0.836 | 0.866 | 1.24 | 0.904 | 0.603
